Results as given in patent publication US20150275180A1, “Chemical preconditioning process for cell material to obtain chemical epigenetic reprogramming and pluripotency expression” (priority 2012, published 2015).
Where two headings read alike, the source gives them in different places.

Assays:
Lipogems-derived hASCs [1] = conditions: 2 mg/ml HBR
From the text: (§1) A, Sox2; B, Oct4; C, Nanog. The amount of each transcript from exposed or unexposed cells was normalized to HPRT1, and the mRNA expression of exposed cells was plotted at each time point as fold change relative to the expression in control unexposed cells, defined as 1 (mean±S.E.; n=6);

[2] = system: human dermal skin fibroblasts; conditions: 2 mg/ml HBR
From the text: as §1

Lipogems-derived hASCs [3] = conditions: 2 mg/ml HBR, 7-day treatment
From the text: as §1, with “GATA4;” for “Sox2;”, “Nkx2.5;” for “Oct4;”, “neurogenin1; D, VEGF; E, MyoD.” for “Nanog.”

[4] = system: human dermal skin fibroblasts; conditions: 2 mg/ml HBR, 7-day treatment
From the text: as §1, with “GATA4;” for “Sox2;”, “Nkx2.5;” for “Oct4;”, “neurogenin1; D, VEGF; E, MyoD.” for “Nanog.”

[5] = system: human dermal skin fibroblasts; conditions: HBR 2 mg/ml for 14 days, confocal microscopy
From the text: Scale bars are 40 μm. Representative of six separate experiments;

[6] = system: human dermal skin fibroblasts; experiment: Comparative analysis of HBR, its grafting moieties alone or as a mixture, on stemness gene expression; assay type: cell-based; conditions: 12 hours, 2.0 mg/ml HBR, 1.5 mg/ml HA, 2.5 mM BU, 10^-8M RA, hydrolyzed HBR 2 mg/ml
Procedure: FIG. 6 is the comparative analysis of the effect of HBR, or its grafting moieties alone or as a mixture, on the expression of sternness-related genes in human dermal skin fibroblasts: cells were incubated for 12 hours in the absence or presence of 2.0 mg/ml HBR, 1.5 mg/ml HA, 2.5 mM BU, or 10^-8M RA, or exposed to a hydrolyzed (HY) HBR solution (2 mg/ml), obtained from a 2-h basic HBR hydrolysis followed by pH neutralization. This procedure affords a complete release of each single HBR grafted moiety, leading to the formation of a mixture of HA, BU, and RA, with each molecule in the concentration range reported above for the experiments based on cell incubation in the presence of each molecule alone. The amount of each transcript from exposed or unexposed cells was normalized to HPRT1, and the mRNA expression of exposed cells was plotted at each time point as fold change relative to the expression in control unexposed cells, defined as 1 (mean±S.E.; n=6).
This procedure affords a complete release of each single HBR grafted moiety, leading to the formation of a mixture of HA, BU, and RA, with each molecule in the concentration range reported above for the experiments based on (stem) cell incubation in the presence of each molecule alone.

human skin fibroblasts = conditions: 14 days, 2 mg/ml HBR, mean±S.E., n=6
Lipogems-derived hASCs [7] = conditions: 14 days, 2 mg/ml HBR, mean±S.E., n=6
Lipogems-derived hASCs [8] = conditions: HBR for 14 days, confocal microscopy
[9] = system: adult rat cardiac ventricular cardiomyocytes; conditions: in vitro HBR treatment; cited from earlier work
[10] = system: Stro-1 positive rat mesenchymal stem cells; conditions: in vitro HBR treatment; cited from earlier work
[11] = later times of exposure (7-day treatment)
[12] = within the first 12-24 hours of a 7-day treatment

## hyaluronic acid esterified with butyric and retinoic acids [HBR]
Lipogems-derived hASCs [1]; [11]
  transcription of stemness-related genes Nanog, Sox2, Oct4: down-regulation
Lipogems-derived hASCs [1]; [12]
  transcription of stemness-related genes Nanog, Sox2, Oct4: significantly enhanced
[2]; [11]
  transcription of stemness-related genes Nanog, Sox2, Oct4: down-regulation
[2]; [12]
  transcription of stemness-related genes Nanog, Sox2, Oct4: significantly enhanced
Lipogems-derived hASCs [3]
  gene expression of GATA4, Nkx2.5, VEGF, neurogenin-1 and myoD: significantly enhanced
[4]
  gene expression of GATA4, Nkx2.5, VEGF, neurogenin-1 and myoD: significantly enhanced
[5]
  expression of tissue restricted marker proteins (α-myosin heavy chain, α-sarcomeric actinin, β-3 tubulin, vWF, myoD): appearance of cells expressing
[6]
  transcription of the stemness/pluripotency genes Sox2, Nanog and Oct4 versus unexposed control: significantly higher levels
Human skin fibroblasts
  cells expressing vWF (endothelial marker): 18.0±2.6
  cells expressing β-3-tubulin (neuronal determination marker): 12.30±2.7%
  percentage of myoD (skeletal muscle)-positive elements: 14.00±3.00%
  percentage of α-sarcomeric actinin (myocardial)-positive elements: 28.00±3.40%
Lipogems-derived hASCs [7]
  cells expressing α-sarcomeric actinin: 31.0±2.8%
  myoD positive cells: 12.4±2.0%
  vWF positive cells: 22.2±3.0%
  β-3-tubulin expressing cells: 14.0±2.1%
Lipogems-derived hASCs [8]
  expression of tissue restricted marker proteins (α-myosin heavy chain, α-sarcomeric actinin, β-3 tubulin, vWF, myoD): appearance of cells expressing
[9]
  histone H4 acetylation compared with untreated cells: significant increase
[10]
  histone H4 acetylation compared with untreated cells: significant increase

## hyaluronic acid [HA]
[6]
  transcription of the stemness/pluripotency genes Sox2, Nanog and Oct4 versus unexposed control: significantly increased

## CCCC(=O)O [BU, butyric acid]
[6]
  transcription of the stemness/pluripotency genes Sox2, Nanog and Oct4 versus unexposed control: significantly increased
